Results: the METLIN SMRT retention time set (Domingo-Almenara et al. 2019)

Assay: gradient 5% acetonitrile 3 min, to 50% in 2 min, to 85% in 15 min, held 3 min, 100 µL/min
Conditions: column: Zorbax Extend-C18 2.1 x 50 mm; eluents: water / acetonitrile, 0.1% formic acid
Method in brief: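 Using water and acetonitrile that each contained 0.1% formic acid, mixtures of ~100 pure standards were separated at 100 μL/min on a Zorbax Extend-C18 column (2.1 × 50 mm, 1.8 μm). The HPLC fed a quadrupole time-of-flight mass spectrometer working in positive and negative ionization mode, with dead and dwell volumes of 40 μL and 900 μL. Data were acquired over 3 months. Retention time was read from computationally picked adduct peaks after manual inspection of each.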

CCc1cccc(NC(=O)Cn2ccc3ccc(-c4nnc(C)o4)cc32)c1
RP-LC retention time: 798 s

CCOCC(=O)N1CC(F)(F)C[C@H]1c1nc(COC)no1
RP-LC retention time: 675 s

C=CCN1C[C@@H](C)N([C@H](c2ccc(C(=O)N(CC)CC)cc2)c2cccc(OC)c2)C[C@@H]1C
RP-LC retention time: 770 s

CC(=O)c1sc(NC(=O)c2cc(Cl)sc2Cl)nc1-c1ccccc1
RP-LC retention time: 1080 s

CC1CCC2(CC1)NC(=O)N(CC(=O)NCc1ccccc1Cl)C2=O (stereo not given)
RP-LC retention time: 790 s

CCn1ccc2oc(C)c(C(=O)NCc3cccc(Br)c3)c2c1=O
RP-LC retention time: 1060 s

COc1ccc(-c2nnc(-c3ccc(C)c(S(=O)(=O)N4CCC(C)CC4)c3)o2)cc1
RP-LC retention time: 1220 s

O=C(CCCc1nc(-c2ccccc2)no1)Nc1nc(-c2ccccc2)cs1
RP-LC retention time: 1080 s

O=S(=O)(Cc1ccccc1)N1CCCCC1c1nc(-c2ccccc2)n[nH]1 (stereo not given)
RP-LC retention time: 943 s

O=C(NC1CCCCC1)C1CCN(S(=O)(=O)c2cc(-c3noc(C4CCC4)n3)cs2)CC1
RP-LC retention time: 1070 s

O=C(CN1C(=O)C(C(=O)N2CCCCC2)Sc2ccccc21)N1CCN(c2ccccc2)CC1 (stereo not given)
RP-LC retention time: 907 s

CCOC(=O)c1ccc(N2CCCC2)nn1
RP-LC retention time: 562 s

O=C(Cn1ccc2ccccc21)N1CCN(c2ccc(F)cc2)CC1
RP-LC retention time: 884 s

Cc1noc(C)c1CN1CCCC(C)(c2nc(-c3ccccc3)no2)C1 (stereo not given)
RP-LC retention time: 623 s

Cn1nccc1C(=O)NCc1ccc2c(c1)CCN2C(=O)c1ccccc1
RP-LC retention time: 759 s

O=C(NCc1ccco1)C1CN(C(=O)c2ccc(F)c(F)c2)C1
RP-LC retention time: 663 s

CC(=O)OC1CCN(C(=O)c2cccc(C#N)c2)CC1
RP-LC retention time: 706 s

Cc1ccc(N2CCC(NC(=O)c3cccc(N(C)C)c3)C2=O)cc1 (stereo not given)
RP-LC retention time: 931 s

CCOC(=O)c1noc2ncnc(Nc3cccc(CC)c3)c12
RP-LC retention time: 1060 s

CCSc1nnc(-c2nn(C)c3c2CN(S(=O)(=O)c2ccc(OC)c(Cl)c2)CC3)n1CC
RP-LC retention time: 968 s

CC1CCN(C(=O)c2nnc(-c3ccc(S(=O)(=O)N4CCOCC4)cc3)o2)CC1
RP-LC retention time: 866 s

COc1ccc(C(=O)Nc2cc(-c3cccnc3)no2)cc1
RP-LC retention time: 721 s

O=C(c1ccco1)N1CCCC1c1nc(-c2ccc(F)cc2)no1 (stereo not given)
RP-LC retention time: 875 s

Cc1ccc(NC(=O)N2CCC(OC3CCN(S(C)(=O)=O)CC3)CC2)c(C)c1
RP-LC retention time: 743 s

CCn1c(=O)oc2cc(S(=O)(=O)N3CCN(C(=O)c4ccnn4C)CC3)ccc21
RP-LC retention time: 687 s

COc1cccc(CNC2=NCCNC23CCN(S(=O)(=O)c2ccc(C)cc2)CC3)c1
RP-LC retention time: 717 s

O=C(NCCC1CCN(C(=O)Nc2cc(F)cc(F)c2)CC1)C1CCC1
RP-LC retention time: 810 s

Cn1cc(-c2nc(C(=O)N3CCN(c4ccccc4)CC3)cs2)c2cccnc21
RP-LC retention time: 911 s

O=C(C(=O)N1CCN(C2CCCCC2)CC1)c1ccc[nH]1
RP-LC retention time: 588 s

Cc1ccc(-n2nc(C)c3c(=O)n(CC(=O)N4CCN(c5cc(Cl)ccc5C)CC4)ccc32)cc1
RP-LC retention time: 1100 s

CCN(CCN(C)C)c1ccc(C(=O)O)cc1NS(=O)(=O)c1cc(F)ccc1F
RP-LC retention time: 611 s

CCn1ncc(NC(=O)c2ccc(C)cc2)c(N2CCOCC2)c1=O
RP-LC retention time: 816 s

O=S(=O)(c1ccc(F)cc1)N1CCCC(c2nnnn2-c2ccccc2)C1 (stereo not given)
RP-LC retention time: 934 s

O=C(COc1ccccc1)N1CCCCC1CCN1CCCCC1 (stereo not given)
RP-LC retention time: 635 s

COC(=O)c1ccccc1NC(=O)Cn1nc2n(c1=O)CCCCC2
RP-LC retention time: 756 s

COC(=O)c1cc(OCc2cccc(OC)c2)c2cc(OC)ccc2n1
RP-LC retention time: 901 s

CCc1cccc(NC(=O)Cn2nc3n(c2=O)CCCCC3)c1
RP-LC retention time: 722 s

O=C(Nc1ccc(Cl)cc1)c1cccn1Cc1noc(C2CC2)n1
RP-LC retention time: 1000 s

CCOC(=O)c1c(C)c(CCC(=O)NCc2ccc3c(c2)OCO3)n(C)c1C
RP-LC retention time: 836 s

CC(C)c1nnc(-c2cccnc2N2CCN(C(=O)c3ccc4c(c3)OCO4)CC2)o1
RP-LC retention time: 759 s

COc1ccc(CC(=O)N2C[C@@H]3C[C@H]2C[C@@H]3NS(C)(=O)=O)cc1
RP-LC retention time: 647 s

CCc1nnc(-c2cccnc2N2CCN(C(=O)Nc3cc(F)cc(F)c3)CC2)o1
RP-LC retention time: 850 s

N#Cc1ccsc1NC(=O)c1ccc2ncsc2c1
RP-LC retention time: 725 s

COc1cccc(CNC(=O)c2cc(NC(C)=O)cc3nc(C)ccc23)c1OC
RP-LC retention time: 594 s

O=C(c1cn2cc(Cl)ccc2n1)N1CCN(c2ccc(F)cc2)CC1
RP-LC retention time: 876 s
